Data set [1] can be described thus: Drug recovery in Sprague-Dawley rat urine assessed as retention time treated with luteolin at 6.5 mg/kg, iv by reverse-phase HPLC method. The conditions noted are these: in vivo. More on the design: dose 6.5 mg/kg, route intravenous. Format: ADME, organism-based.
The nature of data set [2]: Half life in Sprague-Dawley rat treated with luteolin at 6.5 mg/kg, iv. Format: ADME, organism-based. More on the design: dose 6.5 mg/kg, route intravenous. To be noted: in vivo.
Data set [3] concerns Liver microsome. Description: Stability in Sprague-Dawley rat liver microsomes at 10 uM after 10 to 30 mins by HPLC analysis. Format: ADME. (In general: Microsomes from liver hold many membrane-bound enzymes, among them those of drug oxidation.)
The test system of data set [4] is Kidney. Briefly: Drug metabolism in Sprague-Dawley rat kidney homogenate treated with luteolin at 20 uM after 20 to 60 mins. The data set is classed as ADME, tissue-based. To be noted: tissue homogenate.
The subject of data set [5] is Rattus norvegicus. Briefly: Clearance in Sprague-Dawley rat treated with luteolin at 6.5 mg/kg, iv. Format: ADME, organism-based. Set-up: dose 6.5 mg/kg, route intravenous. The conditions noted are these: in vivo.
The nature of data set [6]: Mean residence time (0 to infinity) in Sprague-Dawley rat treated with luteolin at 6.5 mg/kg, iv. To be noted: in vivo. More on the design: dose 6.5 mg/kg, route intravenous. The data set is classed as ADME, organism-based.
The nature of data set [7]: Drug metabolism in Sprague-Dawley rat erythrocytes homogenate treated with luteolin at 20 uM after 20 to 60 mins in presence of COMT inhibitor entacapone. Format: ADME, cell-based. To be noted: erythrocyte.
A short description of data set [8]: Volume of distribution in Sprague-Dawley rat treated with luteolin at 6.5 mg/kg, iv. Format: ADME, organism-based. More on the design: dose 6.5 mg/kg, route intravenous. To be noted: in vivo.
Data set [9] in a line: Drug excretion in Sprague-Dawley rat urine treated with luteolin at 6.5 mg/kg, iv after 24 hrs co-treated with COMT inhibitor entacapone. Format: ADME, organism-based. More on the design: dose 6.5 mg/kg, route intravenous. To be noted: read-out: Drug excretion.
The subject of data set [10] is Liver. Briefly: Drug metabolism in Sprague-Dawley rat liver homogenate treated with luteolin at 20 uM after 20 to 60 mins in presence of COMT inhibitor entacapone. Format: ADME, tissue-based. To be noted: tissue homogenate.
The subject of data set [11] is Small intestine. Description: Drug metabolism in Sprague-Dawley rat small intestine homogenate treated with luteolin at 20 uM after 20 to 60 mins in presence of COMT inhibitor entacapone. Format: ADME, tissue-based. To be noted: tissue homogenate.
Data set [12] deals with Liver. Briefly: Drug metabolism in Sprague-Dawley rat liver homogenate treated with luteolin at 20 uM after 20 to 60 mins. Format: ADME, tissue-based. The conditions noted are these: tissue homogenate.
Data set [13] relates to Lung. Description: Drug metabolism in Sprague-Dawley rat lung homogenate treated with luteolin at 20 uM after 20 to 60 mins. To be noted: tissue homogenate. Format: ADME, tissue-based.
Data set [14] concerns Lung. Description: Drug metabolism in Sprague-Dawley rat lung homogenate treated with luteolin at 20 uM after 20 to 60 mins in presence of COMT inhibitor entacapone. Format: ADME, tissue-based. To be noted: tissue homogenate.
Data set [15] deals with Kidney. Briefly: Drug metabolism in Sprague-Dawley rat kidney homogenate treated with luteolin at 20 uM after 20 to 60 mins in presence of COMT inhibitor entacapone. The data set is classed as ADME, tissue-based. To be noted: tissue homogenate.
For data set [16], the system named is Small intestine. Description: Drug metabolism in Sprague-Dawley rat small intestine homogenate treated with luteolin at 20 uM after 20 to 60 mins. Format: ADME, tissue-based. To be noted: tissue homogenate.
Data set [17] is described as follows: AUC (0 to t) in Sprague-Dawley rat treated with luteolin at 6.5 mg/kg, iv. The data set is classed as ADME, organism-based. More on the design: dose 6.5 mg/kg, route intravenous. The conditions noted are these: plasma.
Data set [18] in a line: Drug metabolism in Sprague-Dawley rat erythrocytes homogenate treated with luteolin at 20 uM after 20 to 60 mins. The data set is classed as ADME, cell-based. The conditions noted are these: erythrocyte.
Data set [19] in a line: Drug excretion in Sprague-Dawley rat urine treated with luteolin at 6.5 mg/kg, iv after 24 hrs. Format: ADME, organism-based. More on the design: dose 6.5 mg/kg, route intravenous. The conditions noted are these: read-out: Drug excretion.
Data set [20] can be described thus: Cmax in Sprague-Dawley rat treated with luteolin at 6.5 mg/kg, iv. Format: ADME, organism-based. Set-up: dose 6.5 mg/kg, route intravenous. The conditions noted are these: in vivo.
The nature of data set [21]: AUC (0 to infinity) in Sprague-Dawley rat treated with luteolin at 6.5 mg/kg, iv. The data set is classed as ADME, organism-based. Set-up: time infinity, dose 6.5 mg/kg, route intravenous. To be noted: plasma.
Data set [22] is described as follows: Mean residence time (0 to t) in Sprague-Dawley rat treated with luteolin at 6.5 mg/kg, iv. The data set is classed as ADME, organism-based. Set-up: dose 6.5 mg/kg, route intravenous. The conditions noted are these: in vivo.

By half-life is commonly meant the time in which the quantity being followed falls by half. The term clearance denotes the rate of elimination divided by the concentration. A higher clearance goes with efficient removal. The term MRT inf denotes the average time that molecules of a dose stay in the body. What is called Vd is the apparent volume that relates the amount in the body to the concentration in plasma or blood. A low value points to confinement near the circulation. As usually defined, the AUC(0-t) is exposure summed from dosing to a finite time, without extrapolation to infinity. A low value points to low exposure. As a reminder, the Cmax is the maximum level reached in the sampled fluid or tissue. As a reminder, the AUC(0-inf) is total exposure, with the tail of the curve extrapolated. A high value points to more exposure. The MRT last is the average time that molecules of a dose stay in the body.

Regarding `COc1ccc(-c2cc(=O)c3c(O)cc(O)cc3o2)cc1O` [DIOSMETIN], the Retention_time in data set [1] is on record as 30.85 min. Moreover, the half-life in data set [2] was 30.8 min. The Stability result in [3] is recorded as “Unstable”. Moreover, the Drug metabolism result in data set [4] is “metabolite_detected”; in [7], “metabolite_not_detected”; in data set [10], “metabolite_not_detected”; in data set [11], “metabolite_not_detected”; in data set [12], “metabolite_detected”; in [13], “metabolite_detected”. The Drug metabolism entry in data set [14] was “metabolite_not_detected”; in data set [15] it was “metabolite_not_detected”; in [16], “metabolite_detected”; in [18], “metabolite_detected”. The compound also had a clearance in [5] of 238 mL/min/kg. In data set [6], this compound yielded an MRT inf of 46 min. For the same compound, the volume of distribution (Vd) in data set [8] worked out at 10.3 L/kg. Besides, the dose excreted at 24 h in [9] was 0.254%; in data set [19], 1.22%. In addition, in data set [17], the AUC(0-t) was 427 ng·h/mL. Also, the peak level in [20] (Cmax) was 560 ng/mL. The same compound came in with an area under the curve AUC(0-inf) in [21] of 466 ng·h/mL. Besides, in data set [22], the mean residence time (MRT last) is 35.8 min.

(Values after ChEMBL document CHEMBL3525960, “Role of catechol-O-methyltransferase in the disposition of luteolin in rats” (Drug Metab Dispos, 2011).)
